Key:
[1] = biological target: T1, Mitogen-activated protein kinase 8 (Homo sapiens, UniProt P45983); assay: DELFIA Assay (Dissociation Enhanced Lanthanide Fluoro-Immuno Assay); settings: pH 7.8
Protocol: Compound was evaluated for its ability to disrupt the interaction of pepJIP1 with JNK1 by using DELFIA assay. DELFIA is a heterogeneous assay whereby a biotin-linked pepJIP1 is adsorbed onto a streptavidin-coated plate followed by incubation with GST-JNK1. […] Controls include unlabeled peptide and blanks receiving no compounds.

[2] = biological target: T1, Mitogen-activated protein kinase 8; assay: In Vitro Kinase Assay (LanthaScreen Kinase Assay); settings: pH 7.5; 22 °C

T1 sequence (P45983 whole entry): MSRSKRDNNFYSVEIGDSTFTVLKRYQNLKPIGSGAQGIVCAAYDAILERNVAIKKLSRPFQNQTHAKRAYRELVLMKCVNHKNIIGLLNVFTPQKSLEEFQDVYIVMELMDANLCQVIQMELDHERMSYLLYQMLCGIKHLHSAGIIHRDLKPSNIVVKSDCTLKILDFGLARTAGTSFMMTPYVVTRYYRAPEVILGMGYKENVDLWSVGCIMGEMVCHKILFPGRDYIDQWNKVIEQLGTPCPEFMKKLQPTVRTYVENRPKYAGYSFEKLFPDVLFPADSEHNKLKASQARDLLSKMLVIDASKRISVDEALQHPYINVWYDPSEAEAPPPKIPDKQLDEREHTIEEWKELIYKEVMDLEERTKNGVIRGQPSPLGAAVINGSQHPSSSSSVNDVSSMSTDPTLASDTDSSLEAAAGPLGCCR

| IC50 [1] | IC50 [2] | Compound |
| --- | --- | --- |
| > 25 µM | > 100 µM | O=c1[nH]nc(Sc2ccc([N+](=O)[O-])s2)n1-c1ccc2c(c1)OCCO2 [4-(2,3-dihydro-1,4-benzodioxin-6-yl)-5-[(5-nitrothiophen-2-yl)sulfanyl]-4H-1,2,4-triazol-3-ol] |
| 7.5 µM | > 100 µM | Cc1nc(Sc2nnnn2-c2ccccc2)sc1C(=O)O [4-methyl-2-[(1-phenyl-1H-1,2,3,4-tetrazol-5-yl)sulfanyl]-1,3-thiazole-5-carboxylic acid] |
| > 25 µM | > 100 µM | c1ccc(CSc2nnnn2-c2ccccc2)cc1 [5-(benzylsulfanyl)-1-phenyl-1H-1,2,3,4-tetrazole] |
| 0.237 µM | 3.1 µM | O=c1[nH]nc(Sc2ncc([N+](=O)[O-])s2)n1-c1ccccc1 [5-[(5-nitro-1,3-thiazol-2-yl)sulfanyl]-4-phenyl-4H-1,2,4-triazol-3-ol] |
| 0.183 µM | 3.3 µM | O=[N+]([O-])c1cnc(Sc2nnnn2-c2ccccc2)s1 [5-nitro-2-[(1-phenyl-1H-1,2,3,4-tetrazol-5-yl)sulfanyl]-1,3-thiazole] |
